From patent publication US20230203081A1, “LINCOSAMIDE ANTIBIOTICS AND USES THEREOF” (President and Fellows of Harvard College, priority 2020, published 2023)
Values after ≈ are worked out from the molar mass of the structure shown.

What was measured:
Type in all cases: cell-based
[1] = test system: E. faecium Clinical VRE; assay: MIC (broth microdilution or agar dilution, CLSI); conditions: Enterococcus faecium; E. faecium Clinical VRE; read-out: MIC
Outline: (§1)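 Following CLSI guidelines, broth microdilution or agar dilution spans usually 128-0.06 μg/mL (2.5% DMSO final), triplicate runs, clindamycin comparator. Inocula for broth work are 5×10^5 CFU/mL in cation-adjusted Mueller-Hinton; anaerobic strains get specialized handling.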

[2] = test system: E. faecium VRE; assay: MIC (broth microdilution or agar dilution, CLSI); conditions: Enterococcus faecium; E. faecium VRE; read-out: MIC
Outline: as §1

[3] = test system: S. aureus cErmA; assay: MIC (broth microdilution or agar dilution, CLSI); conditions: Staphylococcus aureus; S. aureus cErmA; read-out: MIC
Outline: as §1

[4] = test system: S. aureus MRSA; assay: MIC (broth microdilution or agar dilution, CLSI); conditions: Staphylococcus aureus
Outline: as §1

[5] = test system: E. faecium Line R & VRE; assay: MIC (broth microdilution or agar dilution, CLSI); conditions: Enterococcus faecium, E. faecium Line R & VRE, read-out: MIC
Outline: as §1

[6] = test system: P. aeruginosa ATCC 27853; assay: MIC (broth microdilution or agar dilution, CLSI); conditions: Pseudomonas aeruginosa, ATCC27853; P. aeruginosa ATCC 27853; read-out: MIC
Outline: as §1

[7] = test system: E. faecalis VRE; assay: MIC (CLSI), first E. faecalis VRE line of Table 4; conditions: Enterococcus faecalis; E. faecalis VRE (Table 4, first VRE line); read-out: MIC
Description: (§2) Minimum inhibitory concentrations (MICs) were determined by broth microdilution method or agar dilution method following the Clinical and Laboratory Standards Institute guidelines. Standard bacterial strains were obtained from American Type Culture Collection (ATCC). Other bacterial strains were obtained from hospitals and commercial sources, so noted in Table 11. Before the start of the MIC experiment, standard and test compound stock solutions were prepared in dimethyl sulfoxide (DMSO, Aldrich D2650) at a stock concentration of 5,120 μg/mL. The compound concentration range typically employed for each experiment was 128-0.06 μg/mL (2.5% final DMSO concentration). Clindamycin was used as a comparator in all experiments and each experiment was performed in triplicate. Specialized procedures were employed for streptococcal and anaerobic strains. All other bacterial strains were sub-cultured on blood agar plates (tryptic soy agar with 5% sheep blood, Hardy Diagnostics) and incubated overnight at 35° C. Organisms were suspended in cation-adjusted Mueller-Hinton broth (CaMHB, BD 212322) and optical density was adjusted to 0.5 McFarland standard. Suspensions were further diluted to obtain a final inoculum of 5×10^5 CFU/mL for broth microdilution experiments.

[8] = test system: E. faecalis VRE; assay: MIC (CLSI), third E. faecalis VRE line of Table 4; conditions: Enterococcus faecalis; E. faecalis VRE (Table 4, third VRE line); read-out: MIC
Description: as §2

[9] = test system: E. coli ΔTolC; assay: microbe, parasite or virus in culture; conditions: Escherichia coli, E. coli ΔTolC
Outline: (§3)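 Inoculum for broth microdilution was 5×10^5 CFU/mL final, prepared from overnight 35° C blood-agar subcultures (separate handling for streptococcal and anaerobic strains); MICs read by CLSI broth microdilution or agar dilution.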

[10] = test system: E. coli armA; assay: microbe, parasite or virus in culture; conditions: Escherichia coli, E. coli armA
Outline: as §3

[11] = test system: S. pyogenes ATCC 19615; assay: MIC (broth microdilution or agar dilution, CLSI); conditions: Streptococcus pyogenes, ATCC19615, S. pyogenes ATCC 19615; read-out: MIC
Outline: as §3

[12] = test system: S. pneumoniae ATCC 6303; assay: MIC (broth microdilution or agar dilution, CLSI); conditions: Streptococcus pneumoniae, ATCC6303; S. pneumoniae ATCC 6303; read-out: MIC
Outline: as §3

[13] = test system: S. aureus ATCC 700699; assay: MIC (broth microdilution or agar dilution, CLSI); conditions: Staphylococcus aureus, ATCC700699; S. aureus ATCC 700699; read-out: MIC
Outline: as §3

[14] = test system: A. baumannii ATCC 19606; assay: MIC (broth microdilution or agar dilution, CLSI); conditions: Acinetobacter baumannii, ATCC19606; A. baumannii ATCC 19606; read-out: MIC
Outline: as §3

[15] = test system: S. aureus ATCC BAA-1707 (MRSA); assay: MIC (broth microdilution or agar dilution, CLSI); conditions: Staphylococcus aureus; S. aureus ATCC BAA-1707 (MRSA); read-out: MIC
Outline: as §3

[16] = test system: S. aureus ATCC 29213; assay: MIC (broth microdilution or agar dilution, CLSI); conditions: Staphylococcus aureus, ATCC29213, S. aureus ATCC 29213; read-out: MIC
Outline: as §3

[17] = test system: E. coli LptD; assay: MIC (broth microdilution or agar dilution, CLSI); conditions: Escherichia coli, E. coli LptD; read-out: MIC
Outline: as §3

[18] = test system: E. coli ATCC 25922; assay: MIC (broth microdilution or agar dilution, CLSI); conditions: Escherichia coli, ATCC25922; E. coli ATCC 25922; read-out: MIC
Outline: as §3

[19] = test system: E. faecalis ATCC 29212; assay: MIC (broth microdilution or agar dilution, CLSI); conditions: Enterococcus faecalis, ATCC29212, E. faecalis ATCC 29212; read-out: MIC
Outline: as §3

[20] = test system: K. oxytoca Clinical; assay: MIC (broth microdilution or agar dilution, CLSI); conditions: Klebsiella oxytoca; K. oxytoca Clinical; read-out: MIC
Outline: as §3

[21] = test system: S. aureus hVISA; assay: MIC (broth microdilution or agar dilution, CLSI); conditions: Staphylococcus aureus; S. aureus hVISA; read-out: MIC
Outline: as §3

[22] = test system: S. pyogenes MMX 946; cErmB; assay: MIC (broth microdilution or agar dilution, CLSI); conditions: Streptococcus pyogenes; S. pyogenes MMX 946; cErmB; read-out: MIC
Outline: as §3

[23] = test system: S. pneumoniae MMX 3031 cMefA; assay: MIC (broth microdilution or agar dilution, CLSI); conditions: Streptococcus pneumoniae, MMX3031CMEFA, S. pneumoniae MMX 3031 cMefA; read-out: MIC
Outline: as §3

[24] = test system: S. pneumoniae MMX 3028 cErmB; assay: MIC (broth microdilution or agar dilution, CLSI); conditions: Streptococcus pneumoniae, MMX3028CERMB; S. pneumoniae MMX 3028 cErmB; read-out: MIC
Outline: as §3

[25] = test system: E. faecalis MMX 847; cErmB; assay: MIC (broth microdilution or agar dilution, CLSI); conditions: Enterococcus faecalis; E. faecalis MMX 847; cErmB; read-out: MIC
Outline: as §3

[26] = test system: S. pneumoniae ATCC 49619; assay: MIC (broth microdilution or agar dilution, CLSI); conditions: Streptococcus pneumoniae, ATCC49619, S. pneumoniae ATCC 49619; read-out: MIC
Outline: as §3

[27] = test system: E. faecalis VRE; assay: MIC (CLSI), second E. faecalis VRE line of Table 4; conditions: Enterococcus faecalis; E. faecalis VRE (Table 4, second VRE line); read-out: MIC
Description: as §2

[28] = test system: P. aeruginosa ΔAmex OprM; assay: MIC (broth microdilution or agar dilution, CLSI); conditions: Pseudomonas aeruginosa
Outline: as §1

Row | Compound | MIC [2] [µg/mL] | MIC [4] [µg/mL] | MIC [5] [µg/mL] | MIC [6] [µg/mL] | MIC [7] [µg/mL] | MIC [8] [µg/mL] | MIC [10] [µg/mL] | MIC [12] [µg/mL] | MIC [13] [µg/mL] | MIC [14] [µg/mL] | MIC [15] [µg/mL] | MIC [21] [µg/mL] | MIC [22] [µg/mL] | MIC [23] [µg/mL] | MIC [24] [µg/mL] | MIC [25] [µg/mL] | MIC [27] [µg/mL] | MIC [28] [µg/mL] | further results
1 | CS[C@H]1O[C@H]([C@H](NC(=O)[C@H]2NC[C@@H]3C[C@H](CC(C)C)CCO[C@H]32)[C@H](C)Sc2ccc(CN(C)C)cc2)[C@H](O)[C@H](O)[C@H]1O [FSA-09-04-092, (4S,5aS,8S,8aR)-N-((1S,2S)-2-((4-((Dimethylamino)methyl)phenyl)thio)-1-((2R,3R,4S,5R,6R)-3,4,5-trihydroxy-6-(methylthio)tetrahydro-2H-pyran-2-yl)propyl)-4-isobutyloctahydro-2H-oxepino[2,3-c]pyrrole-8-carboxamide] | 4 (≈ 6.39 µM) | 0.25 (≈ 0.399 µM) | 2 (≈ 3.2 µM) | 64 (≈ 102 µM) | 4 (≈ 6.39 µM) | 4 (≈ 6.39 µM) | 4 (≈ 6.39 µM) | 0.06 (≈ 0.0959 µM) | 8 (≈ 12.8 µM) | 16 (≈ 25.6 µM) | 0.25 (≈ 0.399 µM) | 16 (≈ 25.6 µM) | 0.25 (≈ 0.399 µM) | 0.06 (≈ 0.0959 µM) | 0.125 (≈ 0.2 µM) | 1 (≈ 1.6 µM) | 8 (≈ 12.8 µM) | – | MIC [1]: 1 µg/mL (≈ 1.6 µM); MIC [3]: 4 µg/mL (≈ 6.39 µM); MIC [9]: 0.25 µg/mL (≈ 0.399 µM); MIC [11]: 0.25 µg/mL (≈ 0.399 µM); MIC [16]: 0.5 µg/mL (≈ 0.799 µM); MIC [17]: 0.5 µg/mL (≈ 0.799 µM); MIC [18]: 4 µg/mL (≈ 6.39 µM); MIC [19]: 0.25 µg/mL (≈ 0.399 µM); MIC [20]: 8 µg/mL (≈ 12.8 µM); MIC [26]: 0.25 µg/mL (≈ 0.399 µM)
2 | C=CC[C@@H]1CCO[C@@H]2[C@H](CN[C@@H]2C(=O)N[C@H]([C@H](C)Cl)[C@H]2OC(SC)[C@H](O)[C@H](O)C2O)C1 (stereo partly drawn) [FSA-10-09-045] | 8 (≈ 16.7 µM) | 0.06 (≈ 0.125 µM) | 16 (≈ 33.4 µM) | > 128 | 16 (≈ 33.4 µM) | 8 (≈ 16.7 µM) | 8 (≈ 16.7 µM) | 0.06 (≈ 0.125 µM) | 8 (≈ 16.7 µM) | 16 (≈ 33.4 µM) | 0.06 (≈ 0.125 µM) | 8 (≈ 16.7 µM) | 1 (≈ 2.09 µM) | 0.06 (≈ 0.125 µM) | 0.5 (≈ 1.04 µM) | 8 (≈ 16.7 µM) | 32 (≈ 66.8 µM) | 2 (≈ 4.18 µM) | –
3 | CCC[C@@H]1CCO[C@@H]2[C@H](CN[C@@H]2C(=O)N[C@H]([C@H](C)Cl)[C@H]2OC(SC)[C@H](O)[C@H](O)C2O)C1 (stereo partly drawn) [FSA-10-09-051] | 4 (≈ 8.32 µM) | 0.06 (≈ 0.125 µM) | 8 (≈ 16.6 µM) | > 128 | 8 (≈ 16.6 µM) | 2 (≈ 4.16 µM) | 8 (≈ 16.6 µM) | 0.06 (≈ 0.125 µM) | 4 (≈ 8.32 µM) | 8 (≈ 16.6 µM) | 0.06 (≈ 0.125 µM) | 8 (≈ 16.6 µM) | 0.5 (≈ 1.04 µM) | 0.06 (≈ 0.125 µM) | 0.25 (≈ 0.52 µM) | 4 (≈ 8.32 µM) | 8 (≈ 16.6 µM) | 2 (≈ 4.16 µM) | –
